In PMC9535710 (ACS Omega, 2022):

Tests used:
[1] = SRB cytotoxicity, U251 glioblastoma cells; format: cell-based, human; conditions: human, U251 glioblastoma cells
[2] = SRB cytotoxicity, PC-3 prostate cells; format: cell-based; conditions: human, PC-3 prostate tumor cells
[3] = SRB cytotoxicity, K562 leukemia cells; format: cell-based, human; conditions: human, K562 leukemia cells
[4] = SRB cytotoxicity, HCT-15 colon cells; format: cell-based, human; conditions: human, HCT-15 colon tumor cells
[5] = SRB cytotoxicity, MCF-7 breast cells; format: cell-based; conditions: human, MCF-7 breast tumor cells
[6] = SRB cytotoxicity, SKLU-1 lung cells; format: cell-based, human; conditions: human, SKLU-1 lung tumor cells
U251 (glioblastoma) = experiment: SRB cytotoxicity, U251 glioblastoma cells; format: cell-based, human; conditions: Homo sapiens, U-251, read-out: IC50 U251
K562 (leukemia) = experiment: SRB cytotoxicity, K562 leukemia cells; format: cell-based, human; conditions: Homo sapiens, K562, read-out: IC50 K562
HCT-15 (colon) = experiment: SRB cytotoxicity, HCT-15 colon cells; format: cell-based, human; conditions: Homo sapiens, HCT-15, read-out: IC50 HCT-15
SKLU-1 (lung) = experiment: SRB cytotoxicity, SKLU-1 lung cells; format: cell-based, human; conditions: Homo sapiens, SK-LU-1, read-out: IC50 SKLU-1

SMILES	inhibition at 50 μM [1] [%]	inhibition at 50 μM [2] [%]	inhibition at 50 μM [3] [%]	inhibition at 50 μM [4] [%]	inhibition at 50 μM [5] [%]	inhibition at 50 μM [6] [%]	IC50 (U251 (glioblastoma)) [µM]	IC50 (K562 (leukemia)) [µM]	IC50 (HCT-15 (colon)) [µM]	IC50 (SKLU-1 (lung)) [µM]
C=C(C)[C@@H]1CC[C@]2(C)CC[C@]3(C)[C@H](CC[C@@H]4[C@@]5(C)CC[C@H](O)C(C)(C)[C@@H]5CC[C@]43C)[C@@H]12 [lupeol (5), lupeol]	27.3	50.7	48.8	10.4	22.3	13				
CC(C)=CCC[C@@H](C)[C@@H]1CC[C@]2(C)C3=C(CC[C@@]12C)[C@@]1(C)CC[C@H](O)C(C)(C)[C@@H]1CC3 [euphol (2), eupha-8,24-dien-3β-ol]			26.9	2.18	36.6	4.9				
COc1cc([C@@H]2c3cc4c(cc3[C@@H](O[C@@H]3O[C@@H]5CO[C@@H](C)O[C@H]5[C@H](O)[C@H]3O)[C@H]3COC(=O)[C@H]23)OCO4)cc(OC)c1O [etoposide, reference compound]							2.4 ± 0.2	2.2 ± 0.7	4.8 ± 0.5	2.6 ± 0.3
